Test results published in patent publication US7482379B2, “Propenoyl hydrazides” (priority 2004, dated 2009).
Peptide text beside a SMILES is read from it. * marks the point of attachment. AMC = Cc1cc(=O)oc2cc(N*)ccc12; Cbz = O=C(OCc1ccccc1)*

Legend:
Gingipain R = Gingipain R inhibition; type: biochemical; details: Table 3
Trypsin = details: Table 5, gingipain and clostripain specific inhibitors
Method: Trypsin. Trypsin was purchased from Sigma Chemical Co. (St. Louis, Mo.) as a solid which was dissolved in a solution of 1 mM HCl at a concentration of 1 μM, kept at 0° C., and used immediately. […] The enzymatic assay was followed for 10 min with the 2.5 mM stock inhibitor solution and 1 mM stock substrate solution. The data was processed as a competitive reversible inhibitor by a Dixon plot.

Cathepsin B [1] = molecular target: T1, Cathepsin B (Homo sapiens, UniProt P07858); assay: Cathepsin B incubation inhibition assay; type: biochemical; details: for kobs/[I] Cathepsin B: Table 5, gingipain and clostripain specific inhibitors
Method: Papain and Cathepsin B. The incubation method was used to measure the irreversible inhibition of papain and cathepsin B. […] Pseudo first-order inactivation rate constants were obtained from plots of ln vt/vo versus time.

Clostripain = Clostripain (Hathewaya histolytica, UniProt P09870); details: Table 3; Z-Phe-Arg-AMC substrate; pH 7.6
Clostripain, sequence (P09870 51-526): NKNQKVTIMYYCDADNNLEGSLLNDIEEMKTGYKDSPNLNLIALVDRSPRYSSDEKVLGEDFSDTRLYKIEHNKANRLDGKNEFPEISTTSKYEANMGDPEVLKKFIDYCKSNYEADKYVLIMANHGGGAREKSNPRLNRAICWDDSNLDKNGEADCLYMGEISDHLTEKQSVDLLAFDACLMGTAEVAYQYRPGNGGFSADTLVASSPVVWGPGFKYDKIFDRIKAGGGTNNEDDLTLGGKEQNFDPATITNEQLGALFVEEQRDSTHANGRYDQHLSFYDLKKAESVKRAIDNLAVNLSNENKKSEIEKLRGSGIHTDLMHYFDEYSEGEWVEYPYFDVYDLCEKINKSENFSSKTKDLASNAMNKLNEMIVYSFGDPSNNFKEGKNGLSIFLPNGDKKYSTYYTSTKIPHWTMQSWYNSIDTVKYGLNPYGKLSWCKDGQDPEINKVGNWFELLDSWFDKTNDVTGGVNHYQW
Source text: Clostripain. […] All data obtained was processed by pseudo-first order kinetics,

Gingipain K = Gingipain K (Porphyromonas gingivalis, UniProt Q51817); assay: biochemical; type: biochemical; details: for k2 Gingipain K: Table 3, Suc-Ala-Phe-Lys-AMC substrate, pH 8.0; for kinact/KI: pH 8, read-out: kobs/[I] Gingipain K
Gingipain K, sequence (Q51817 229-1732 limits assumed): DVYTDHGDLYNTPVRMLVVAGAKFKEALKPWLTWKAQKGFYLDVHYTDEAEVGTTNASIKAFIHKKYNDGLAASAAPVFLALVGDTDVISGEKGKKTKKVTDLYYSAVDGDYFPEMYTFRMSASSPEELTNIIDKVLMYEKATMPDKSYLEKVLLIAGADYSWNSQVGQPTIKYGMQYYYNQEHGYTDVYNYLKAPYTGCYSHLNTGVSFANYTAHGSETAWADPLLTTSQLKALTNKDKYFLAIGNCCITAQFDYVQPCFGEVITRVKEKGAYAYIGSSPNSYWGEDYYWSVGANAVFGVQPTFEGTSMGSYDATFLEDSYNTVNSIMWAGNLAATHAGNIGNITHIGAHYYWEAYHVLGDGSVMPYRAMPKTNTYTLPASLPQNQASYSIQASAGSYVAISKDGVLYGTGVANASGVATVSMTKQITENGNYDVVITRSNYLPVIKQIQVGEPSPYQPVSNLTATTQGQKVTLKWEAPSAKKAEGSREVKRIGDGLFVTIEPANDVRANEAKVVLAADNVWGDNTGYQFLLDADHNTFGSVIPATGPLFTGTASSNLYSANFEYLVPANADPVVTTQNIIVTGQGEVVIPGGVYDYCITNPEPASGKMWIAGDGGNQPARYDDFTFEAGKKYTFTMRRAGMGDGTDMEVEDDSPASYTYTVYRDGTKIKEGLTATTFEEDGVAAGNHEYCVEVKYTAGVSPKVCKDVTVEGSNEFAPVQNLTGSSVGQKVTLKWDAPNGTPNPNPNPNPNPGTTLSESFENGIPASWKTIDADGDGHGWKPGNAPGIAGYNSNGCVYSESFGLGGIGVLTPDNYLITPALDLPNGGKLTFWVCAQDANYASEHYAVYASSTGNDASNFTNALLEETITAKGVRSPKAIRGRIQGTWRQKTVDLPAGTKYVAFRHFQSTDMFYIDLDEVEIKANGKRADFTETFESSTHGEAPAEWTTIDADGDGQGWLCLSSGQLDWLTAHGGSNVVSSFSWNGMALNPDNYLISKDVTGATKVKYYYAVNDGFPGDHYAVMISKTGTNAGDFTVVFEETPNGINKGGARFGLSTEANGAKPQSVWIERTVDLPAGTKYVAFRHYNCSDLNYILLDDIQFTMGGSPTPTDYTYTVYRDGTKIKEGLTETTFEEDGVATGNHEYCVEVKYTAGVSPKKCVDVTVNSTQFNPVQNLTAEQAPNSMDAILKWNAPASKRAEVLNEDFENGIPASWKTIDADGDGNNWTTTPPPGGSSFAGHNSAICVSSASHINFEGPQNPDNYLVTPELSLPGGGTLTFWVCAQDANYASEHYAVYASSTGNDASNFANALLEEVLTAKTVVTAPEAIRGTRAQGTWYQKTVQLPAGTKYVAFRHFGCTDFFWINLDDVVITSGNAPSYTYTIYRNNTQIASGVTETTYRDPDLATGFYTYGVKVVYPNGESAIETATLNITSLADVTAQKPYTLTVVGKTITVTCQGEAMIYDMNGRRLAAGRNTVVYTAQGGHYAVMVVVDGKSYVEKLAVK

S. mansoni legumain [2] = molecular target: S. mansoni legumain (Schistosoma mansoni, UniProt P09841, N192C); assay: S. mansoni legumain (SmAE) inhibition assay; type: biochemical
S. mansoni legumain (Schistosoma mansoni, UniProt P09841, N192C), sequence (P09841 32-291 N192C): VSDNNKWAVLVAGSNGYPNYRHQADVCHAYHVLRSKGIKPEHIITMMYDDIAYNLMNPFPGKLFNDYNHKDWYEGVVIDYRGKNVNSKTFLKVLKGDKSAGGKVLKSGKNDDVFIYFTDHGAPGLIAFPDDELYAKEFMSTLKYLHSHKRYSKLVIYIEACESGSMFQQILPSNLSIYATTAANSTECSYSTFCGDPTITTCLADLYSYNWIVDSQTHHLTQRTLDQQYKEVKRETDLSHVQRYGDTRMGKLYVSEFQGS
Method: Studies with the propenoyl hydrazides using the schistosome legumain […], (Schistosoma mansoni asparaginyl endopeptidase) were also performed. […] The actual active site enzyme concentration is unknown. The lyophilized enzyme ([…]) was reconstituted in 1.5 mL 0.5 M sodium acetate, pH 4.5 containing 4 mM DTT, and left to stand at 37° C. for 3-4 hours to allow for auto-activation of the zymogen. In a black 96-well microtiter plate, 50 μL of activated enzyme was added to an equal volume of 0.1 M citrate-phosphate buffer pH 6.8 containing 4 mM DTT. Inhibitor stock solutions (20 mM) were prepared in DMSO. Serial dilutions (using water) of inhibitor were added (as 1 μL aliquots) to yield concentrations of between 2 and 0.00002 μM inhibitor. […] After incubating various inhibitor concentrations with enzyme, 100 μL of the same buffer containing 20 μM substrate (Cbz-Ala-Ala-Asn-AMC) was added to the wells and the reaction monitored at room temperature with linear kinetics up to 20 minutes. Inhibitors are tested in duplicate. A plot of the RFU/min versus the inhibitor concentration [μM] permitted calculation of an IC50 value and estimation of the kobs/[I].

Papain = molecular target: T2, Papain (Carica papaya, UniProt P00784); assay: Papain incubation inhibition assay; type: biochemical; details: for kinact/KI: pH 7.5, read-out: kobs/[I] Papain
T2 sequence (P00784 134-345): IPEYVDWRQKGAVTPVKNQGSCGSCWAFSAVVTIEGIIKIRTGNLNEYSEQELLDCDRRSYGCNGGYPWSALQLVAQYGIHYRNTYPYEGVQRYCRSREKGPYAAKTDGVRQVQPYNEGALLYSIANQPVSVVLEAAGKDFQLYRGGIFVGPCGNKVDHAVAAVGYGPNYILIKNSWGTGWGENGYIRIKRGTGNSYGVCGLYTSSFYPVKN
Method: Pseudo first-order inactivation rate constants were obtained from plots of ln vt/vo versus time.
The incubation method was also used for papain. The inhibition incubation buffer for papain was 50 mM Hepes buffer at pH 7.5, containing 2.5 mM DTT and 2.5 mM EDTA. The assay used the substrate Z-Phe-Arg-pNA (53.7 μM) in the same buffer. The approximate concentration of papain added to the incubation buffer was 0.29 mg/mL. The release of p-nitroanilide was monitored at 405 nm with a Molecular Devices Thermomax microplate reader.

S. mansoni legumain [3] = details: background art, cited from earlier work
human legumain = molecular target: T3, human legumain (Homo sapiens, UniProt Q99538); details: synthetic substrate; background art; cited from earlier work
T3 sequence (Q99538 18-323): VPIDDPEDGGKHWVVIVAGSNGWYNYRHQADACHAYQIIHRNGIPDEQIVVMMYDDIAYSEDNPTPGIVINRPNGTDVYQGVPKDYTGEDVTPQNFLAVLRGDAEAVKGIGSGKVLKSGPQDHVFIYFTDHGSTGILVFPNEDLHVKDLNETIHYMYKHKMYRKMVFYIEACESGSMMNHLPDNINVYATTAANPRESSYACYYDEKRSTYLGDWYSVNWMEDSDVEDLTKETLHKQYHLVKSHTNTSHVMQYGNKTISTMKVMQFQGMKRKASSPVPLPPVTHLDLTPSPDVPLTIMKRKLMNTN

Cathepsin B [4] = molecular target: T1, Cathepsin B; details: irreversible inhibition; background art; cited from earlier work
clan CD proteases = details: background art; cited from earlier work
cathepsin L = cathepsin L (Homo sapiens, UniProt P07711); details: irreversible inhibition; background art; cited from earlier work
cathepsin L, sequence (P07711 114-333, species assumed): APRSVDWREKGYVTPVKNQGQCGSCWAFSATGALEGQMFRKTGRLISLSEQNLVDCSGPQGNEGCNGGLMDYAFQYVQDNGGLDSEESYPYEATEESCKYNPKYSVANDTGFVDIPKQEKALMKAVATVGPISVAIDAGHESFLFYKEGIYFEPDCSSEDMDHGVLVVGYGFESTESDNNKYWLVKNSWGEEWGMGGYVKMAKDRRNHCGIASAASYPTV

Row | Structure (SMILES) | k2 Gingipain R (Gingipain R) | k2 Clostripain (Clostripain) | k2 Gingipain K (Gingipain K) | also measured
1 | CCOC(=O)C=CC(=O)N(CCCCN)NC(=O)[C@H](CC(C)C)NC(=O)CCc1ccccc1 [PhPr-Leu-ALys-CH═CH—COOEt] | 289 M⁻¹ s⁻¹ | 40,750 M^−1s^−1 | 3,280,000 M^−1s^−1 | kobs/[I] Trypsin (Trypsin): 17 M⁻¹ s⁻¹; kobs/[I] Cathepsin B (Cathepsin B [1]): 9 M⁻¹ s⁻¹
2 | C[C@H](NC(=O)OCc1ccccc1)C(=O)N[C@@H](C)C(=O)NN(CC(N)=O)C(=O)/C=C/C(=O)N(Cc1ccccc1)Cc1ccccc1 [Cbz-Ala-Ala-AAsn-CH═CH—CON(Bzl)2, N^2—(N-BenzyloxycarbonylaIanylalanyl)-N^1-carbamoylmethyl-N^1-trans-(3-dibenzylcarbamoylpropenoyl)hydrazine] | – | – | – | kinact/KI (Gingipain K): 2 M⁻¹ s⁻¹; IC50 (S. mansoni legumain [2]): 45 nM; kinact/KI (S. mansoni legumain [2]; read-out: kobs/[I]): 5800 M⁻¹ s⁻¹; kinact/KI (Papain): 1 M⁻¹ s⁻¹
3 | CC(C)C[C@H](NC(=O)CCc1ccccc1)C(=O)NN(CCCCN)C(=O)C=CC(=O)N(Cc1ccccc1)Cc1ccc(F)cc1 [PhPr-Leu-ALys-CH═CH—CON(Bzl)-p-CH2C6H4F] | 75 M⁻¹ s⁻¹ | 13,800 M^−1s^−1 | 801,000 M^−1s^−1 | –
4 | CC(C)C[C@H](NC(=O)CCc1ccccc1)C(=O)NN(CCCN)C(=O)C=CC(=O)NCc1ccccc1 [PhPr-Leu-AOrn-CH═CH—CONHCH2Ph] | 71 M⁻¹ s⁻¹ | – | 24,700 M^−1s^−1 | –
5 | C[C@H](NC(=O)OCc1ccccc1)C(=O)N[C@@H](C)C(=O)NN(CC(N)=O)C(=O)/C=C/C(=O)N1CCc2ccccc21 [Cbz-Ala-Ala-AAsn-CH═CH—CO-indoline, N^2—(N-Benzyloxycarbonylalanylalanyl)-N^1-carbamoylmethyl-N^1-trans-(3-(2,3-dihydroindol-1-yloxo)propenoyl)hydrazine] | – | – | – | kinact/KI (Gingipain K): 1 M⁻¹ s⁻¹; IC50 (S. mansoni legumain [2]): 70 nM
6 | CC(C)C[C@H](NC(=O)CCc1ccccc1)C(=O)NN(CCCCN)C(=O)C=CC(=O)N(Cc1ccccc1)Cc1ccc2ccccc2c1 | 98 M⁻¹ s⁻¹ | 17,500 M^−1s^−1 | 811,000 M^−1s^−1 | –
7 | CCOC(=O)C=CC(=O)N(CCCN)NC(=O)C(C)NC(=O)CCc1ccccc1 (stereo not shown) [PhPr-Ala-AOrn-CH═CH—COOEt] | 18 M⁻¹ s⁻¹ | – | 632,000 M^−1s^−1 | –
8 | CC(C)CC(NC(=O)CCc1ccccc1)C(=O)NN(CCCCN)C(=O)C=CC(=O)OCc1ccccc1 (stereo not shown) [PhPr-Leu-ALys-CH═CH—COOCH2Ph] | 632 M⁻¹ s⁻¹ | 20,500 M^−1s^−1 | – | –
9 | CC(C)CC(NC(=O)CCc1ccccc1)C(=O)NN(CCCNC(=N)N)C(=O)C=CC(=O)NCc1ccccc1 (stereo not shown) [PhPr-Leu-AArg-CH═CH—CONHCH2Ph] | 555,000 M^−1s^−1 | 287,000 M^−1s^−1 | – | –
10 | CC(C)CC(NC(=O)CCc1ccccc1)C(=O)NN(CCCCN)C(=O)C=CC(=O)N(C)Cc1cccc2ccccc12 (stereo not shown) | 576 M⁻¹ s⁻¹ | 639 M⁻¹ s⁻¹ | 975,000 M^−1s^−1 | –
11 | C[C@H](NC(=O)OCc1ccccc1)C(=O)N[C@@H](C)C(=O)NN(CC(N)=O)C(=O)/C=C/C(=O)NCCc1ccccc1 [Cbz-Ala-Ala-AAsn-CH═CH—CONHCH2CH2Ph, N^2—(N-Benzyloxycarbonylalanylalanyl)-N^1-carbamoylmethyl-N^1-trans-(3-phenethylcarbamoylpropenoyl)hydrazine] | – | – | – | IC50 (S. mansoni legumain [2]): 600 nM; kobs/[I] Papain (Papain; Table 6, legumain specific inhibitors, NI = no inhibition after 20 minutes of incubation): 12 M⁻¹ s⁻¹; kinact/KI (Papain): 12 M⁻¹ s⁻¹
12 | CCOC(=O)C=CC(=O)N(CCCN)NC(=O)[C@H](CC(C)C)NC(=O)CCc1ccccc1 [PhPr-Leu-AOrn-CH═CH—COOEt] | 32 M⁻¹ s⁻¹ | 788 M⁻¹ s⁻¹ | 927,000 M^−1s^−1 | kobs/[I] Cathepsin B (Cathepsin B [1]): 3 M⁻¹ s⁻¹
13 | Cc1cc(=O)oc2cc(NC(=O)[C@H](CC(N)=O)NC(=O)[C@H](C)NC(=O)[C@H](C)NC(=O)OCc3ccccc3)ccc12 [Cbz-Ala-Ala-Asn-AMC] (Cbz-Ala-Ala-Asn-{AMC}) | – | – | – | Km (S. mansoni legumain [3]; synthetic substrate): 90 µM; Km (human legumain): 80 µM
14 | CC(C)C[C@H](NC(=O)CCc1ccccc1)C(=O)NN(CCCN)C(=O)C=CC(=O)N(Cc1ccccc1)Cc1ccccc1 [PhPr-Leu-AOrn-CH═CH—CON(CH2Ph)2] | 541 M⁻¹ s⁻¹ | 541 M⁻¹ s⁻¹ | 61,600 M^−1s^−1 | –
15 | CC(C)CC(NC(=O)CCc1ccccc1)C(=O)NN(CCCCN)C(=O)C=CC(=O)N(Cc1ccccc1)Cc1ccccc1 (stereo not shown) [PhPr-Leu-ALys-CH═CH—CON(CH2Ph)2] | 65 M⁻¹ s⁻¹ | 20,000 M^−1s^−1 | 2,130,000 M^−1s^−1 | –
16 | CC(C)CC(NC(=O)CCc1ccccc1)C(=O)NN(CCCCN)C(=O)C=CC(=O)N(C)Cc1ccccc1 (stereo not shown) [PhPr-Leu-ALys-CH═CH—CON(Me)CH2Ph] | 79 M⁻¹ s⁻¹ | 6,000 M^−1s^−1 | 1,360,000 M^−1s^−1 | –
17 | CC(C)C[C@H](NC(=O)CCc1ccccc1)C(=O)NN(CCCCN)C(=O)C=CC(=O)NCc1ccccc1 [PhPr-Leu-ALys-CH═CH—CONHCH2Ph] | 20 M⁻¹ s⁻¹ | 1,050 M^−1s^−1 | 236,000 M^−1s^−1 | –
18 | CC(C)CCNC(=O)[C@H](CC(C)C)NC(=O)/C=C/C(=O)O (stereo in doubt) [fumarate derivative of E-64c, trans-HOOCCH═CH—CO-Leu-NH(CH2)2CH(CH3)2] | – | – | – | kapp cathepsin B (Cathepsin B [4]): 625 M⁻¹ s⁻¹; inhibition of clan CD proteases (clan CD proteases): do not inhibit; kapp cathepsin L (cathepsin L): 2272 M⁻¹ s⁻¹
19 | CC(C)CC(NC(=O)CCc1ccccc1)C(=O)NN(CCCNC(=N)N)C(=O)C=CC(=O)N(Cc1ccccc1)Cc1ccccc1 (stereo not shown) [PhPr-Leu-AArg-CH═CH—CON(CH2Ph)2] | 804,000 M^−1s^−1 | 474,000 M^−1s^−1 | – | –
20 | CC(C)CCNC(=O)[C@H](CC(C)C)NC(=O)[C@H]1O[C@@H]1C(=O)O [Example E-64c, E-64c] | – | – | – | inhibition of clan CD proteases (clan CD proteases): do not inhibit
21 | CCOC(=O)C=CC(=O)N(CCCNC(=N)N)NC(=O)C(CC(C)C)NC(=O)CCc1ccccc1 (stereo not shown) [PhPr-Leu-AArg-CH═CH—COOEt] | – | 69,600 M^−1s^−1 | 1,580 M^−1s^−1 | –
22 | CC(C)CC(NC(=O)CCc1ccccc1)C(=O)NN(CCCCN)C(=O)C=CC(=O)N(Cc1cccc2ccccc12)Cc1cccc2ccccc12 (stereo not shown) [PhPr-Leu-ALys-CH═CH—CON(CH2-1-naphthyl2] | 214 M⁻¹ s⁻¹ | 2,250 M^−1s^−1 | 1,890,000 M^−1s^−1 | –
23 | CCOC(=O)/C=C/C(=O)N(CC(N)=O)NC(=O)[C@H](C)NC(=O)[C@H](C)NC(=O)OCc1ccccc1 [Cbz-Ala-Ala-AAsn-CH═CH—COOEt, N^2—(N-BenzyloxycarbonylalanylaIanyl)-N^1-carbamoylmethyl-N^1-trans-(3-ethylesterpropenoyl)hydrazine] | – | – | – | kinact/KI (Cathepsin B [1]; pH 6, read-out: kobs/[I] Cathepsin B): 1 M⁻¹ s⁻¹; kinact/KI (Gingipain K): 6 M⁻¹ s⁻¹
24 | C[C@H](NC(=O)[C@H](Cc1ccccc1)NC(=O)OCc1ccccc1)C(=O)C=[N+]=[N-] [Cbz-Phe-Ala-CHN2] | – | – | – | inhibition of S. mansoni legumain (S. mansoni legumain [3]): not inhibited
25 | CC(C)C[C@H](NC(=O)[C@H]1O[C@@H]1C(=O)O)C(=O)NCCCCN=C(N)N [Example E-64, E-64] | – | – | – | inhibition of S. mansoni legumain (S. mansoni legumain [3]): not inhibited
